Common to all, as to format: cell-based, mouse
The test system of data set [1] is MC3T3-E1 cells. The data set can be described thus: Cell number (DNA content) and cell covered surface on coated titanium implants. Particulars: Ti implants, 48 h. How it is done:
Cells growing on the different surfaces were lysed after 48 hours of cell culture by a freeze-thaw method in deionized distilled water. Cell lysates were used for determination of DNA quantity using Hoechst 33258 fluorescence assay. Samples were mixed with 20 μg/ml of Hoechst 33258 fluorescence stain (Sigma, St. Quentin Fallavier, France) in THE buffer at pH 7.4 containing 10 mM Tris-HCl, 1 mM EDTA and 2 M NaCl. The intensity of fluorescence was measured at excitation and emission wavelengths of 356/465 nm using a multifunction microplate reader (Cary Eclipse fluorescence spectrophotometer, Agilent Technologies, Santa Clara, United States). Relative fluorescence units were correlated with the cell number using a linear standard curve.
Confocal images were obtained of cells growing in the different treated surfaces at 48 hours of cell culture. […] Various images of each implant were taken with the confocal microscope (Leica DMI 4000B equipped with Leica TCS SPE laser system) by measuring fluorescence signal between 430-480 nm for DAPI and 500-525 nm for Phalloiding-FITC. […]
Quantitation of the percentage of titanium surface covered with MC3T3-E1cells was achieved by analyzing the previous images with ImageJ software (Rasband, W. S., ImageJ, U. S. National Institutes of Health, Bethesda, Md., USA).

Data set [2] relates to MC3T3-E1 cells. Description: LDH activity (cytotoxicity) of cells on treated tissue culture plastic wells. Particulars: TCP wells; after 24 hours; UV-treated (302 nm, 30 min); higher dose (20 nmols); compared to low control. On the procedure:
To treat tissue culture plastic (TCP) wells, 10 μl of each dilution treatment were left on the surfaces and were allowed to air-dry for 15 min in the sterile flow bench. For UV-irradiation, a UV lamp of 302 nm was used at an intensity of irradiation of 6 mW/cm^2 (UVP, Upland, Calif., USA) during 30 minutes. Treated surfaces were immediately used for cell culture experiments.
To test the effect of the different treatments onto the plastic wells, 96-well plates made of polystyrene were used and the treatments with 7-DHC performed directly onto them. Cells grown onto untreated TCP were added as a control for all the experiments. Cells were seeded at a density of 30,000 cells/cm^2 and they were maintained in α-MEM supplemented with 10% FCS and antibiotics. […]
Lactate dehydrogenase (LDH) activity in the culture media was used as an index of cell death. LDH activity was determined spectrophotometrically after 30 min incubation at 25° C. of 50 μl of culture and 50 μl of the reaction mixture by measuring the oxidation of NADH at 490 nm in the presence of piruvate following the manufacturer's protocol (Cytotoxicity Detection Kit (LDH), Roche Diagnostics, Mannheim, Germany). […]

The subject of data set [3] is MC3T3-E1 cells. Description: ELISA of 25-D3 released to the culture media, coated titanium implants. Particulars: Ti implants; 0.2 nmols; 48 h; UV exposure 15 minutes; vs ethanol-treated Ti samples. On the procedure: To test the effect of the surface modification, 96-well plates were used. Ti disks were placed into the wells and treatments and UV-activation were performed over there. Cells grown onto untreated polystyrene tissue culture plastic (TCP) were added as a control for all the experiments. Cells were seeded at a density of 30,000 cells/cm^2 and they were maintained in α-MEM supplemented with 10% FCS and antibiotics. Culture media was collected after 48 hours, to test cytotoxicity and the production of the hydroxylated form of vitamin D, 25-D3. Cells were harvested after two days of culture using Trizol reagent (Roche Diagnostics, Mannheim, Germany), to analyze gene expression of several osteoblast differentiation markers and enzymes involved in vitamin D synthesis using real-time RT-PCR. On the other hand, MC3T3-E1 cells were harvested after 21 days to measure calcium content and ALP activity in the cell monolayer.
25-D3 released to the culture media after 2 days of treatment were analyzed by enzyme-linked immunosorbent assay (ELISA). Aliquots from the culture media were centrifuged at 1800 rpm for 5 minutes at 4° C. and supernatants were used for 25-D3 and determination following instructions described by the manufacturer (Immunodiagnostic Systems Ltd, Boldon, Tyne and Wear, UK).

The structures appear in SMILES notation.

Take `CC(C)CCC[C@@H](C)[C@H]1CC[C@H]2C3=CC=C4C[C@@H](O)CC[C@]4(C)[C@H]3CC[C@]12C` [7-DHC, 7-dehydrocholesterol]: the “Cell number (DNA content)” value with MC3T3-E1 cells [1] (30 minutes of UV irradiation vs UV-untreated) was “significantly higher amount of cells”. The “Percentage of implant surface covered with cells” value in the data set on MC3T3-E1 cells [1] (30 minutes of UV irradiation vs without irradiation) is reported as “significant greatest percentage”. For the same compound, the “Cytotoxicity (LDH activity in culture media)” value with MC3T3-E1 cells [2] is recorded as “toxic effect”. The “25-D3 secretion to the cell culture media” value in the data set with MC3T3-E1 cells [3] is reported as “increased 25-hydroxyvitamin D3 (25-D3) production”.

For the origin of these results see patent publication US8821568B2, “Implant modified with non-hydroxylated vitamin D precursors” (Numat Biomedical S.L., priority 2008, dated 2014).
